Test results taken from the NIST ThermoML archive (doi:10.1016/j.jct.2018.10.015).
Numbers after ± are expanded uncertainties.

Test: xn = mol fraction of the nth substance listed
Settings: 101.3 kPa, Liquid; for viscosity: Concentric cylinders viscometry; for mass density: Vibrating tube method

CCCCn1cc[n+](C)c1C.O=S(=O)([N-]S(=O)(=O)C(F)(F)F)C(F)(F)F + CCOC(=O)OCC
Settings	mass density [kg/m3]	viscosity [mPa·s]
293.15 K, x1 = 0.0996	1078.2 ± 2.4	2.172 ± 0.028
293.15 K, x1 = 0.199	1156.1 ± 2.4	4.104 ± 0.053
293.15 K, x1 = 0.299	1216.4 ± 2.4	7.648 ± 0.096
293.15 K, x1 = 0.3982	1263.9 ± 2.4	13.1 ± 0.16
293.15 K, x1 = 0.4985	1302.6 ± 2.4	21.35 ± 0.27
293.15 K, x1 = 0.5979	1334.6 ± 2.4	33.14 ± 0.42
293.15 K, x1 = 0.698	1361.8 ± 2.5	49.42 ± 0.62
293.15 K, x1 = 0.8	1385.4 ± 2.5	71.45 ± 0.93
293.15 K, x1 = 0.9012	1405.7 ± 2.5	99.34 ± 1.5
293.15 K, x1 = 1	1423.1 ± 2.5	133.6 ± 2.3
298.15 K, x1 = 0.0996	1072.9 ± 2.4	1.989 ± 0.025
298.15 K, x1 = 0.199	1151 ± 2.4	3.665 ± 0.045
298.15 K, x1 = 0.299	1211.4 ± 2.4	6.684 ± 0.081
298.15 K, x1 = 0.3982	1259 ± 3	11.19 ± 0.14
298.15 K, x1 = 0.4985	1297.7 ± 2.4	17.82 ± 0.22
298.15 K, x1 = 0.5979	1329.8 ± 2.4	27.06 ± 0.33
298.15 K, x1 = 0.698	1357.1 ± 2.5	39.58 ± 0.49
298.15 K, x1 = 0.8	1380.8 ± 2.5	56.2 ± 0.69
298.15 K, x1 = 0.9012	1401.1 ± 2.5	76.75 ± 1
298.15 K, x1 = 1	1418.5 ± 2.5	101.82 ± 1.6
303.15 K, x1 = 0.0996	1067.5 ± 2.4	1.829 ± 0.023
303.15 K, x1 = 0.199	1145.8 ± 2.4	3.295 ± 0.04
303.15 K, x1 = 0.299	1206.4 ± 2.4	5.892 ± 0.072
303.15 K, x1 = 0.3982	1254.1 ± 2.4	9.654 ± 0.12
303.15 K, x1 = 0.4985	1292.9 ± 2.4	15.06 ± 0.18
303.15 K, x1 = 0.5979	1325.1 ± 2.4	22.44 ± 0.27
303.15 K, x1 = 0.698	1352.4 ± 2.5	32.24 ± 0.4
303.15 K, x1 = 0.8	1376.1 ± 2.5	44.95 ± 0.56
303.15 K, x1 = 0.9012	1396.5 ± 2.5	60.57 ± 0.75
303.15 K, x1 = 1	1413.9 ± 2.5	79.23 ± 1.1
308.15 K, x1 = 0.0996	1062.1 ± 2.4	1.689 ± 0.021
308.15 K, x1 = 0.199	1140.6 ± 2.4	2.979 ± 0.037
308.15 K, x1 = 0.299	1201.3 ± 2.4	5.234 ± 0.063
308.15 K, x1 = 0.3982	1249.1 ± 2.4	8.41 ± 0.1
308.15 K, x1 = 0.4985	1288.1 ± 2.4	12.88 ± 0.16
308.15 K, x1 = 0.5979	1320.3 ± 2.4	18.86 ± 0.23
308.15 K, x1 = 0.698	1347.6 ± 2.5	26.64 ± 0.33
308.15 K, x1 = 0.8	1371.4 ± 2.5	36.59 ± 0.45
308.15 K, x1 = 0.9012	1391.9 ± 2.5	48.62 ± 0.6
308.15 K, x1 = 1	1409.3 ± 2.5	62.74 ± 0.78
313.15 K, x1 = 0.0996	1056.8 ± 2.4	1.565 ± 0.02
313.15 K, x1 = 0.199	1135.4 ± 2.4	2.708 ± 0.033
313.15 K, x1 = 0.299	1196.3 ± 2.4	4.682 ± 0.057
313.15 K, x1 = 0.3982	1244.2 ± 2.4	7.39 ± 0.089
313.15 K, x1 = 0.4985	1283.2 ± 2.4	11.12 ± 0.13
313.15 K, x1 = 0.5979	1315.5 ± 2.4	16.03 ± 0.19
313.15 K, x1 = 0.698	1342.9 ± 2.5	22.31 ± 0.27
313.15 K, x1 = 0.8	1366.8 ± 2.5	30.21 ± 0.37
313.15 K, x1 = 0.9012	1387.2 ± 2.5	39.65 ± 0.49
313.15 K, x1 = 1	1404.8 ± 2.5	50.56 ± 0.6
318.15 K, x1 = 0.0996	1051.4 ± 2.4	1.456 ± 0.019
318.15 K, x1 = 0.199	1130.3 ± 2.4	2.472 ± 0.03
318.15 K, x1 = 0.299	1191.3 ± 2.4	4.215 ± 0.051
318.15 K, x1 = 0.3982	1239.3 ± 2.4	6.543 ± 0.079
318.15 K, x1 = 0.4985	1278.4 ± 2.4	9.697 ± 0.12
318.15 K, x1 = 0.5979	1310.8 ± 2.4	13.78 ± 0.17
318.15 K, x1 = 0.698	1338.2 ± 2.5	18.9 ± 0.23
318.15 K, x1 = 0.8	1362.1 ± 2.5	25.27 ± 0.31
318.15 K, x1 = 0.9012	1382.6 ± 2.5	32.78 ± 0.4
318.15 K, x1 = 1	1400.2 ± 2.5	41.38 ± 0.5
323.15 K, x1 = 0.0996	1046 ± 2.4	1.359 ± 0.017
323.15 K, x1 = 0.199	1125.1 ± 2.4	2.268 ± 0.028
323.15 K, x1 = 0.299	1186.3 ± 2.4	3.816 ± 0.046
323.15 K, x1 = 0.3982	1234.4 ± 2.4	5.835 ± 0.07
323.15 K, x1 = 0.4985	1273.6 ± 2.4	8.523 ± 0.1
323.15 K, x1 = 0.5979	1306 ± 3	11.95 ± 0.14
323.15 K, x1 = 0.698	1333.6 ± 2.4	16.18 ± 0.19
323.15 K, x1 = 0.8	1357.5 ± 2.5	21.39 ± 0.26
323.15 K, x1 = 0.9012	1378 ± 3	27.46 ± 0.33
323.15 K, x1 = 1	1395.6 ± 2.5	34.32 ± 0.42
328.15 K, x1 = 0.0996	1040.5 ± 2.5	1.271 ± 0.016
328.15 K, x1 = 0.199	1119.8 ± 2.4	2.09 ± 0.026
328.15 K, x1 = 0.299	1181.2 ± 2.4	3.473 ± 0.042
328.15 K, x1 = 0.3982	1229.5 ± 2.4	5.245 ± 0.063
328.15 K, x1 = 0.4985	1268.7 ± 2.4	7.565 ± 0.09
328.15 K, x1 = 0.5979	1301.3 ± 2.4	10.47 ± 0.13
328.15 K, x1 = 0.698	1328.8 ± 2.5	14.02 ± 0.17
328.15 K, x1 = 0.8	1352.8 ± 2.5	18.35 ± 0.22
328.15 K, x1 = 0.9012	1373.4 ± 2.5	23.33 ± 0.28
328.15 K, x1 = 1	1391 ± 2.5	28.91 ± 0.35
